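Briefly, cells in 96-well plates were exposed to five compound concentrations for 48 h, and endpoints were estimated by linear interpolation. At the GI50, growth is halved.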 Activity calls are given as the source filed them. Rule as the data show it: active = GI50 up to about 1.1 µM and inactive = higher.
How the values were obtained:
Assay in all cases: NCI anticancer screen, dose series, 48 h
EKVX = test system: EKVX
HCC 2998 = test system: HCC 2998
HL-60 = test system: HL-60
HOP-62 = test system: HOP-62
HOP-92 = test system: HOP-92
K562 = test system: K562
LOX IMVI = test system: LOX IMVI
MCF7 = test system: MCF7
MDA-MB-435 = test system: MDA-MB-435
MOLT-4 = test system: MOLT-4
NCI-H460 = test system: NCI-H460
NCI-H522 = test system: NCI-H522
OVCAR-3 = test system: OVCAR-3
PC-3 = test system: PC-3
RPMI-8226 = test system: RPMI-8226
SF-268 = test system: SF-268
SF-539 = test system: SF-539
SK-OV-3 = test system: SK-OV-3
T47D = test system: T47D
U-251 = test system: U-251

Row | SMILES | GI50 (EKVX) | GI50 (HCC 2998) | GI50 (HL-60) | GI50 (HOP-62) | GI50 (HOP-92) | GI50 (K562) | GI50 (LOX IMVI) | GI50 (MCF7) | GI50 (MDA-MB-435) | GI50 (MOLT-4) | GI50 (NCI-H460) | GI50 (NCI-H522) | GI50 (OVCAR-3) | GI50 (PC-3) | GI50 (RPMI-8226) | GI50 (SF-268) | GI50 (SF-539) | GI50 (SK-OV-3) | GI50 (T47D) | GI50 (U-251)
1 | OC(CCN1CCN(CCOC(c2ccc(F)cc2)c2ccc(F)cc2)CC1)c1ccccc1 (configuration not stated) | 12.9 µM (inactive) | 3.52 µM (inactive) | 15.9 µM (inactive) | 18 µM (inactive) | 10.3 µM (inactive) | 4.56 µM (inactive) | 14.6 µM (inactive) | 16.6 µM (inactive) | 17.8 µM (inactive) | 12.1 µM (inactive) | 16.7 µM (inactive) | 14.4 µM (inactive) | 15.3 µM (inactive) | 13.6 µM (inactive) | 15.7 µM (inactive) | 16.9 µM (inactive) | 11.1 µM (inactive) | 16.3 µM (inactive) | 12.3 µM (inactive) | 14.6 µM (inactive)
2 | Cc1ccc2nc(/C=N/c3ccc(Cl)cc3)cc(C)c2c1 | 14.4 µM (inactive) | 0.574 µM (active) | 1.14 µM (inactive) | 2.26 µM (inactive) | 18.6 µM (inactive) | 0.147 µM (active) | 0.329 µM (active) | 4.7 µM (inactive) | 1.04 µM (active) | 1.12 µM (inactive) | 0.729 µM (active) | 2.65 µM (inactive) | 9.84 µM (inactive) | 1.9 µM (inactive) | 1.24 µM (inactive) | 14.7 µM (inactive) | 2.12 µM (inactive) | 16.8 µM (inactive) | 2.54 µM (inactive) | 8.47 µM (inactive)
3 | CCCCCNC(=O)c1cc2cc(CCl)ccc2oc1=O | 4.41 µM (inactive) | 1.77 µM (inactive) | 1.9 µM (inactive) | 5.69 µM (inactive) | 1.95 µM (inactive) | 5.62 µM (inactive) | 17.3 µM (inactive) | 5.97 µM (inactive) | 9.27 µM (inactive) | 6.68 µM (inactive) | 1.61 µM (inactive) | 3.24 µM (inactive) | 8.02 µM (inactive) | 1.33 µM (inactive) | 10 µM (inactive) | 3.19 µM (inactive) | 2.67 µM (inactive) | 5.19 µM (inactive) | 1.3 µM (inactive) | 9.98 µM (inactive)
4 | CCOC(=O)/C=C(/C(=O)OCC)n1cc(C)c(=O)[nH]c1=O | 3.33 µM (inactive) | 5.71 µM (inactive) | 1.67 µM (inactive) | 18.9 µM (inactive) | 1.71 µM (inactive) | 1.9 µM (inactive) | 2.19 µM (inactive) | 3.89 µM (inactive) | 3.07 µM (inactive) | 2.44 µM (inactive) | 14.6 µM (inactive) | 0.792 µM (active) | 2.68 µM (inactive) | 8.15 µM (inactive) | 2.47 µM (inactive) | 8.65 µM (inactive) | 13.2 µM (inactive) | 18.3 µM (inactive) | 3.69 µM (inactive) | 6.62 µM (inactive)
5 | COc1ccc(-c2nc(-c3cnccn3)n(C3OC(CO)C(O)C(O)C3O)n2)cc1 (configuration not stated) | > 100 µM (inactive) | > 100 µM (inactive) | > 100 µM (inactive) | > 100 µM (inactive) | > 100 µM (inactive) | > 100 µM (inactive) | > 100 µM (inactive) | > 100 µM (inactive) | > 100 µM (inactive) | > 100 µM (inactive) | > 100 µM (inactive) | > 100 µM (inactive) | > 100 µM (inactive) | > 100 µM (inactive) | > 100 µM (inactive) | > 100 µM (inactive) | > 100 µM (inactive) | > 100 µM (inactive) | > 100 µM (inactive) | > 100 µM (inactive)
6 | Cc1ccc(NC(=O)c2ccc(OP(=O)(O)Nc3ccc(C)cc3)cc2)cc1 | > 100 µM (inactive) | > 100 µM (inactive) | > 100 µM (inactive) | > 100 µM (inactive) | > 100 µM (inactive) | > 100 µM (inactive) | > 100 µM (inactive) | > 100 µM (inactive) | > 100 µM (inactive) | > 100 µM (inactive) | > 100 µM (inactive) | 78.3 µM (inactive) | > 100 µM (inactive) | > 100 µM (inactive) | > 100 µM (inactive) | > 100 µM (inactive) | > 100 µM (inactive) | > 100 µM (inactive) | > 100 µM (inactive) | > 100 µM (inactive)
7 | COc1ccc2c(c1)c1c(n2CCN(C)C)-c2cccc(OC)c2CC1 | 14.4 µM (inactive) | 11.6 µM (inactive) |  | 13.8 µM (inactive) | 17.7 µM (inactive) | 2.02 µM (inactive) | 13.4 µM (inactive) | 13.2 µM (inactive) | 12 µM (inactive) | 7.14 µM (inactive) | 14.6 µM (inactive) | 3.88 µM (inactive) | 16.1 µM (inactive) | 11.6 µM (inactive) | 2.05 µM (inactive) | 17.9 µM (inactive) |  | 18.2 µM (inactive) | 10 µM (inactive) | 11.6 µM (inactive)
8 | COc1cc2c3c4[n+](cc2c(OC)c1OC)CCC4CCC3 (configuration not stated) | > 100 µM (inactive) | > 93.1 µM (inactive) |  | > 100 µM (inactive) | > 100 µM (inactive) | 17.9 µM (inactive) | > 100 µM (inactive) | 75.2 µM (inactive) | > 100 µM (inactive) | > 100 µM (inactive) | > 100 µM (inactive) | 51.3 µM (inactive) | 46.9 µM (inactive) | > 100 µM (inactive) | 40.4 µM (inactive) | > 100 µM (inactive) | > 100 µM (inactive) | > 100 µM (inactive) | 24.9 µM (inactive) | 53.8 µM (inactive)
9 | Cc1c2c(c(C)n1-c1ccccc1)C(=O)N(CCN1CCN(c3cccc(C(F)(F)F)c3)CC1)C2=O | 8.02 µM (inactive) | 97.5 µM (inactive) |  | > 100 µM (inactive) | > 100 µM (inactive) | 5.92 µM (inactive) | 37.1 µM (inactive) | 7.71 µM (inactive) | > 100 µM (inactive) | 6.03 µM (inactive) | 45.3 µM (inactive) | 14.1 µM (inactive) | > 100 µM (inactive) | 18.8 µM (inactive) | 21.5 µM (inactive) | > 100 µM (inactive) | 87.1 µM (inactive) | > 100 µM (inactive) | 4.29 µM (inactive) | 31.3 µM (inactive)
10 | OCc1c2c(cc3c1CC1(C3)Cc3cc4c(c(CO)c3C1)CCC4)CCC2 | 14.6 µM (inactive) | 17.5 µM (inactive) | 5.73 µM (inactive) | 15.6 µM (inactive) | 18.5 µM (inactive) | 7.35 µM (inactive) | 15.1 µM (inactive) | 23.5 µM (inactive) | 20.6 µM (inactive) | 9.95 µM (inactive) |  | 13.3 µM (inactive) | 14.4 µM (inactive) | 15.3 µM (inactive) | 21.1 µM (inactive) |  | 17.4 µM (inactive) | 17.5 µM (inactive) | 12.7 µM (inactive) | 15.8 µM (inactive)
11 | Cc1cc2c(cc1C)C(=O)C1(C2)Cc2c(ccc(C)c2C)C1=O (configuration not stated) | > 100 µM (inactive) | > 100 µM (inactive) | > 100 µM (inactive) |  | 79.4 µM (inactive) | > 100 µM (inactive) | > 100 µM (inactive) | > 100 µM (inactive) | > 100 µM (inactive) | > 100 µM (inactive) | > 100 µM (inactive) | > 100 µM (inactive) | > 100 µM (inactive) | > 100 µM (inactive) | > 100 µM (inactive) | 90.8 µM (inactive) | 36.6 µM (inactive) |  | > 100 µM (inactive) | > 100 µM (inactive)
12 | COc1cc2c(c(OC3OC(CO)C(O)C(O)C3O)c1)C(=O)CC(c1ccc(O)cc1)O2 (configuration not stated) | > 100 µM (inactive) | > 100 µM (inactive) | > 100 µM (inactive) |  | > 100 µM (inactive) | > 100 µM (inactive) | > 100 µM (inactive) | > 100 µM (inactive) | > 100 µM (inactive) | > 100 µM (inactive) | > 100 µM (inactive) | > 100 µM (inactive) | > 100 µM (inactive) | > 100 µM (inactive) | > 100 µM (inactive) | > 100 µM (inactive) | > 100 µM (inactive) | > 100 µM (inactive) | > 100 µM (inactive) | > 100 µM (inactive)
13 | O=C(NCC(O)COc1ccccc1)c1ccccc1O (configuration not stated) | > 100 µM (inactive) | > 100 µM (inactive) |  | > 100 µM (inactive) | 86.1 µM (inactive) | > 100 µM (inactive) | > 100 µM (inactive) | > 100 µM (inactive) | > 100 µM (inactive) | 14.5 µM (inactive) |  | 55.6 µM (inactive) | > 100 µM (inactive) | 66.1 µM (inactive) | > 100 µM (inactive) |  | > 100 µM (inactive) | > 100 µM (inactive) | 42.4 µM (inactive) | > 100 µM (inactive)
14 | c1ccc(CCN2CCOCC2)nc1 | > 100 µM (inactive) | > 100 µM (inactive) | > 100 µM (inactive) | > 100 µM (inactive) | > 100 µM (inactive) | > 100 µM (inactive) | > 100 µM (inactive) | > 100 µM (inactive) | > 100 µM (inactive) |  | > 100 µM (inactive) | > 100 µM (inactive) | > 100 µM (inactive) | > 100 µM (inactive) | > 100 µM (inactive) | > 100 µM (inactive) |  | > 100 µM (inactive) | > 100 µM (inactive) | > 100 µM (inactive)
15 | N#Cc1ccc2oc3ccc(C#N)cc3c(=O)c2c1 |  | 58.2 µM (inactive) | 17.9 µM (inactive) |  | 41 µM (inactive) | 31.3 µM (inactive) |  | 24.5 µM (inactive) | 34.4 µM (inactive) | 23.6 µM (inactive) | 18.6 µM (inactive) | 58.2 µM (inactive) | > 10 µM (inactive) | 24.7 µM (inactive) | 23.2 µM (inactive) | 35.9 µM (inactive) | 21.3 µM (inactive) |  | > 100 µM (inactive) | 17.1 µM (inactive)

Reference: ChEMBL document CHEMBL1201862, “PubChem BioAssay data set” (2004)
